Measured values reported in US5482954A, “Signal transduction inhibitor triazole and diazole compounds” (priority 1994, dated 1996).

Legend:
[1] = system: cell adhesion to laminin; test: Cell adhesion to laminin; type: cell-based; details: data not shown
Method: (§1) Cells were preincubated with compound 1 (0.03-10 μg/mL) for periods of 2 to 48 hr prior to the adhesion assay. In addition, compound 1 remained present during the assay. […] Maximal inhibition of adhesion was observed following overnight exposure of the cells to compound 1.

[2] = system: OVCAR3 cells; test: [3H]thymidine incorporation; type: cell-based, human; details: 0-10 μg/mL, 24 hr
Method: (§2) Proliferation: Two independent methods were used to determine the effect of various compounds on cellular proliferation. The first method utilized [^3 H]thymidine labelling and was performed using A2058, 5R, OVCAR3, and MDA-231 cells. Because the potential effect of compound 1 on thymidine metabolism was unknown, a clonogenic assay was also used. This assay utilized crystal violet nuclear staining.
(§3) For the thymidine incorporation assay, an initial aliquot of 15,000 cells was plated in 96 well plates. The cells were grown to subconfluence, serum-starved, then fed with serum-containing media to which incremental doses of compound 1 (0-10 μg/mL) were added. After 24 hr, the cells were pulsed with [^3 H]thymidine (0.5 μCi/well) for 2 hr. Trichloroacetic acid was added to precipitate […] [^3 H]thymidine. After removal, ice cold ethanol/diethyl ether was added to precipitate cellular nucleic acids. The residue was solubilized with 0.2M NaOH and [^3 H]thymidine incorporation was determined by liquid scintillation counting. Inhibition of thymidine uptake was calculated as a percent of untreated control cell incorporation of labelled thymidine. As FIG. 4 indicates, de novo DNA synthesis was inhibited in all of the tumor cell lines. Maximal inhibition (80%) was found with the 5R cells.

[3] = system: A2058 cells; test: [3H]thymidine incorporation; type: cell-based, human; details: 0-10 μg/mL, 24 hr
Method: as §2, §3

[4] = system: MDA-231 cells; test: [3H]thymidine incorporation; type: cell-based, human; details: 0-10 μg/mL, 24 hr
Method: as §2, §3

[5] = system: CHOm5 cells; test: Carbachol-stimulated 45Ca2+ influx; type: cell-based, Chinese hamster; design: % Inhibition of 45Ca2+ Influx into CHOm5 Cells: concentration or dose not given beside the values
Method: Calcium influx was determined using two methods. The first method involved the use of ^45 Ca^2+, while the second method utilized a fluorescent intracellular calcium chelator, Fura-2. The method using Fura-2 is semi-quantitative and is preferred for kinetic analysis and screening whereas the ^45 Ca^2+ method is quantitative.
CHOm5 cells in monolayer culture were washed free of serum-containing media and incubated with either carbachol or the calcium ionophore A23187 (from Molecular Probes, Eugene, Oreg., USA) in the presence of ^45 Ca^2+ and defined buffer (E2 medium with 0.1 mM MgCl2 and 1.0 mM CaCl2). After incubation for 5 min, the radioactive buffer was rapidly and repeatedly washed off with media containing LaCl3, a competitor of calcium efflux. The cell monolayer was solubilized and the calcium uptake was determined by scintillation counting.
Stimulated uptake of radiolabelled calcium was measured as described above. The abbreviations CTL and CC are control and carbachol-stimulated calcium influx values. respectively.

[6] = Plasma levels in mice (HPLC); type: in vivo, nude mice; details: oral
Method: Murine data: A cohort of nude mice were inoculated with A2058 cells and treated with compound 1 at rates of 100 mg/kg/d and 250 mg/kg/qod. These animals were sacrificed humanely at 4 day intervals beginning 18 hr after oral administration of 1. Plasma was collected and frozen until evaluation by HPLC. Plasma samples were precipitated with 10% trichloroacetic acid and extracted with methylene chloride. The organic extract was evaporated to dryness under a stream of nitrogen, reconstituted and chromatographed by HPLC using an isocratic elution of 70% methanol in 0.1 M ammonium acetate (pH 6.5) on a C-18 analytical column. The lower level of sensitivity of this method is 20 ng/mL. The levels of compound 1 in plasma ranged from 1-5 μg/mL in the 100 mg/kg/d cohort and from 5-10 μg/mL in the 250 mg/kg/qod group. These plasma levels are in the range determined to be biologically significant in the inhibition of signal transduction.

[7] = system: A2058 cells; test: Proliferation of A2058 cells (monolayer growth, crystal violet); type: cell-based, human
Method: For the clonogenic assay, aliquots of 50,000 cells per well (24 well plates) were grown under standard tissue culture conditions in the presence of increasing doses or test compound (0-10 μg/mL) or vehicle control. After 96 hr, the cells were gently washed with PBS, fixed, and stained with 0.5% crystal violet nuclear stain in 20% methanol. Excess stain was removed with tap water and bound stain was eluted with an equal volume solution of 01N sodium citrate (pH 4.2) and absolute ethanol. Optical density (O.D.) of eluted crystal violet stain was determined at 540 nm. The results of dose-dependent inhibition of tumor cell proliferation by compound 1 are shown in FIG. 5, in which the data are expressed as percent of untreated control cell proliferation for each cell type. The degree of inhibition varied with the cell type and was maximal (76%) for the A2058 cell line.
A2058 human melanoma cells were used to test the effect of compounds 1 and 3-25 on cellular proliferation. The cells were cultured in the presence of the test compounds (10 μM) for 96 hr. fixed and stained with crystal violet as described above. Growth inhibition was determined as a percent of control growth (using either DMSO or PEG-400 as the vehicle) for each compound. Each experiment was run a minimum of three times and the average of the results for each compound is provided in Table H and in FIGS. 20A and 20B.

[8] = system: A2058 cells; test: Cell adhesion to tissue culture plastic; type: cell-based, human; details: 0.03-10 μg/mL, 2 to 48 hr preincubation
Method: An adhesion assay was developed using tissue culture plastic petri dishes as the substrate. Aliquots of cells treated similarly to those in the cell motility assay were plated in triplicate onto the dishes and incubated for 90 rain at 37° C. Cells which were either poorly adherent or nonadherent were gently washed off with PBS. The remaining cells were stained with Diff Quik™ (from Baxter Scientific Products, McGaw Park. Ill., USA). Adherence was quantitated using laser densitometry and values were calculated as a percentage of the control adherence.
as §1

[9] = oral, nude mice; cited from earlier work
[10] = system: L-type voltage gated calcium channels; details: Hupe, et al.; cited from earlier work
[11] = system: A2058 cells; test: Colony formation (soft agar); type: cell-based, human
Method: Colony formation: Compound 1 was evaluated at three concentrations for inhibition of colony formation in both the A2058 and OVCAR3 cell lines. Colony number was determined in triplicate and compared to the vehicle control run on each 24 well plate to provide a percent. Colonies greater than 60 cells were counted at 100× under phase contrast. […] In a second study, selected compounds were evaluated for their effect on density-independent growth of the A2058 cell line in soft agar. Percent inhibition was determined over triplicate experiments involving three log molar concentrations of the test compound.

## NC(=O)c1nnn(Cc2cc(Cl)c(C(=O)c3ccc(Cl)cc3)c(Cl)c2)c1N [Compound 1]
[1]
  cell adhesion to laminin: decreased cell adhesion
[2]
  inhibition of de novo DNA synthesis: inhibited
[3]
  inhibition of de novo DNA synthesis: inhibited
[4]
  inhibition of de novo DNA synthesis: inhibited
[5]; Cricetulus griseus, FIG. 12, carbachol
  IC50: 935 ± 18 nM
[5]; Table I, carbachol-stimulated
  % Inhibition of 45Ca2+ Influx into CHOm5 Cells: 74%
[6]; 100 mg/kg/d
  level in plasma: 1000 to 5000 ng/mL
[6]; 250 mg/kg/qod
  level in plasma: 5000 to 10000 ng/mL
[7]; FIG. 20A, monolayer growth
  dose dependent inhibition of proliferation: Dose dependent inhibition of proliferation
[7]; Homo sapiens, A2058, Table H, 10 μM, 96 hr, read-out: GROWTH (% OF CONTROL)
  activity at 10 µM: 36.4 ± 6%
[8]
  inhibition of cell adhesion: dose-dependent inhibition of cell adhesion
[9]
  toxicity to normal tissues including connective tissue, mucosal surfaces, and bone marrow: no toxicity to normal tissues
[10]
  inhibition of L-type voltage gated calcium channels: inhibit
[11]; Table H, soft agar
  COLONY FORMATION (% OF CONTROL): 11.1 ± 5 % OF CONTROL
[11]; Table K
  Colony Formation (% of Control): 11.1 ± 5 % of Control
[11]; concentrations as low as 0.2 μM
  inhibition of colony formation: significant inhibitory effects
